Laboratory results reported in PMC7738871, “Covalent modification of Keap1 at Cys77 and Cys434 by pubescenoside a suppresses oxidative stress-induced NLRP3 inflammasome activation in myocardial ischemia-reperfusion injury” (Theranostics, 2021).
pKd: −log10 of the molar value.

Experiments:
Keap1 C434S = target: T1, Keap1 C434S (Homo sapiens, UniProt Q14145, C434S); experiment: ITC titration of PBA with Keap1-C434S; type: binding; details: 25 ℃
T1 construct: His (N); made in house; host or cells: E. coli BL21 (DE3)
T1 sequence (Q14145 whole entry C434S): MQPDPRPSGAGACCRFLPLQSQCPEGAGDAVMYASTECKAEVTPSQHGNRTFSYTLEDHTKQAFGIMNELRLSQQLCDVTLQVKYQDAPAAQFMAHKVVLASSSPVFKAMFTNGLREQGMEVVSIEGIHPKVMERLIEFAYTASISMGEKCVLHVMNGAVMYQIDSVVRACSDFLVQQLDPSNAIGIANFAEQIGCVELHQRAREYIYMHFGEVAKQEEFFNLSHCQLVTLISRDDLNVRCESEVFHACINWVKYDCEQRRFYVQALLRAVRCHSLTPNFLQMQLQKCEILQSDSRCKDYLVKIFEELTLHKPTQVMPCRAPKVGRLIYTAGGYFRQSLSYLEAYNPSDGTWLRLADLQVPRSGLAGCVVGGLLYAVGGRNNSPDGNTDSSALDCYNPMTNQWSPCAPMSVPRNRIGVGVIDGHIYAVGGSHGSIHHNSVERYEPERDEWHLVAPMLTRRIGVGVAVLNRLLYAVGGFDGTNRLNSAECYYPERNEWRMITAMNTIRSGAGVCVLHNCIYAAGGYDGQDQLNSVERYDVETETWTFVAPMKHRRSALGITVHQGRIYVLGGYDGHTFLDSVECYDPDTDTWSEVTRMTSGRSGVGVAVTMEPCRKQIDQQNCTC
Method: (§1) The Keap1 was amplified by PCR using a human cDNA library, and was subcloned into the vector pET28-TEV, which contained one tobacco etch virus (TEV) protease cleavage site at the upstream multiple cloning site. The protein was expressed in E. coli BL21 (DE3) cells and incubated at 37 °C until the OD600 value reached 0.6, using 0.2 mM isopropyl β-D-1-thiogalactopyranoside (IPTG) overnight induction at 18 °C. The cells were isolated by centrifugation, resuspended in ice-cold lysis buffer and lysed by cryogenic overpressure cell breaker at 1,200 psi. The lysates were centrifuged for 60 min at 14,000 rpm to obtain the supernatant. Gravity flow purification of Keap1 protein was obtained at room temperature using 1 mL of Ni-NTA and eluted in buffer containing 250 mM imidazole, followed by 1 mL of HiTrap QHP for the second step purification. The final protein was purified and validated by Superdex 200 10/300GL resin.
(§2) The mutant plasmid DNA was obtained by PCR. The PCR products were cleaved by DpnI restriction enzymes. The restriction endonuclease-cleaved mixture was subsequently transformed into E. coli DH5α. Colonies were evaluated by colony PCR and sequenced. The mutant plasmid was transformed into E. coli BL21 (DE3) after successful sequencing. The steps for expression and purification of all recombinants were described above.
(§3) Isothermal calorimetry (ITC) titration experiments were performed at 25 °C. WT Keap1, Keap1 mutants and PBA were dissolved in binding buffer (40 mM Tris-HCl pH 8.0, 250 mM NaCl). In a typical experiment, 60 μL of PBA (1 mM) was injected 19 times at 2-min intervals from a stirring syringe into the sample cell containing 300 μL of WT protein or mutants (30 μM). The first injection was 0.4 μL of PBA, and the subsequent 18 injections were 2 μL each time. The site-binding models were determined by using MicroCal Origin software.

HO-1 and NQO1 = HO-1 and NQO1 protein expression, H9c2; type: cell-based, rat; details: H9c2 cells, 24 h, dose-dependent
Method: (§4) Total protein was isolated from H9c2 cells, primary mouse cardiomyocytes, RAW264.7 cells and heart tissue using 1X RIPA buffer containing phosphatase and proteinase inhibitors at 4 °C. After measurement of the concentration, the cell lysates were separated by sodium dodecyl sulphate polyacrylamide gel electrophoresis (SDS-PAGE) and transferred to polyvinylidene fluoride (PVDF) membranes. The membranes were blocked in Tris-buffered saline-Tween 20 (TBST) buffer with 5% BSA for 1 h and incubated with primary antibodies (1:1000 dilution) overnight at 4 °C. After the membranes was washed by TBST buffer for three times, they were incubated with horseradish peroxidase (HRP)-conjugated secondary mouse or rabbit antibodies (1:3,000 dilution) at room temperature (RT) for 1.5 h and then detected by SuperEnhanced chemiluminescence (ECL) reaction reagents (GBCBIO Technologies Inc., Guangzhou, Guangdong, China). In brief, drop evenly the ECL working liquid onto the membrane at the ratio of 1 mL ECL working liquid and 10 cm^2 of membrane. After letting the membranes stand for 1-2 min, the bands of the respective proteins were detected with the exposure time of 10 ~60 s.

Keap1 C226S = target: T2, Keap1 C226S (Homo sapiens, UniProt Q14145, C226S); experiment: ITC titration of PBA with Keap1-C226S; type: binding; details: 25 ℃
T2 construct: His (N); made in house; host or cells: E. coli BL21 (DE3)
T2 sequence (Q14145 whole entry C226S): as the sequence (Q14145 whole entry C434S) above, with C226S, S434C counted along it
Method: as §1, §2, §3

ROS in RAW264.7 cells = experiment: Intracellular ROS (DCFH-DA), LPS plus ATP macrophages; type: cell-based
Method: The fluorescent probe DCFH-DA was used to measure intracellular ROS levels. RAW264.7 cells were treated with 100 μg/mL LPS plus ATP as mentioned above. H9c2 cells underwent OGD/R. After the appropriate treatment, the cells were incubated with DCFH-DA at a concentration of 10 μM for 30 min. The cells were washed with PBS three times. A fluorescence microscope and microplate reader were used to measure the level of DCFH-DA fluorescence at the excitation wavelength of 488 nm and the emission wavelength of 525 nm.

Nrf2 = Nrf2 expression in cardiomyocytes under OGD/R; type: cell-based; details: cardiomyocytes under OGD/R condition
Method: as §4

Keap1 C77S/C434S = target: T3, Keap1 C77S/C434S (Homo sapiens, UniProt Q14145, C434S/C77S); experiment: ITC titration of PBA with Keap1-C77S/C434S; type: binding
T3 construct: His (N); made in house; host or cells: E. coli BL21 (DE3)
T3 sequence (Q14145 whole entry C77S/C434S): as the sequence (Q14145 whole entry C434S) above, with C77S counted along it
Method: as §1, §2, §3

[1] = ITC, 25 ℃, Keap1 C77S/C434S double mutant

pKd (Keap1 C434S): 4.86
T△S (Keap1 C434S): 1.87 ± 0.00 kcal/mol
△G (Keap1 C434S): -6.63 ± 0.00 kcal/mol
△H (Keap1 C434S): -4.76 ± 0.367 kcal/mol
pKd (Keap1 C226S): 5.09
T△S (Keap1 C226S): 1.84 ± 0.00 kcal/mol
△G (Keap1 C226S): -6.95 ± 0.00 kcal/mol
△H (Keap1 C226S): -5.11 ± 0.279 kcal/mol
pKd (Keap1 C77S/C434S; [1]): 4.41
T△S (Keap1 C77S/C434S; [1]): 1.11 ± 0.00 kcal/mol
△G (Keap1 C77S/C434S; [1]): -6.03 ± 0.00 kcal/mol
△H (Keap1 C77S/C434S; [1]): -4.92 ± 0.637 kcal/mol
Kd weaker than that of the WT (Keap1 C77S/C434S; double mutant Cys77S/Cys434S vs WT Keap1): ~ 15 fold
Structure (SMILES): C=C(COC(=O)C=Cc1ccc(O)c(O)c1)C(O)COC1OC(CO)C(O)C(O)C1O (stereo not shown) [PBA, pubescenoside A]
HO-1 and NQO1 expression at the protein level (HO-1 and NQO1): increased
LPS plus ATP-induced ROS (ROS in RAW264.7 cells): significantly suppress
Nrf2 expression (Nrf2): strongly induced
